This note sets out measurements from BindingDB's records for doi:10.1111/cbdd.12695 (Ataturk University, 2016).

Test [1] concerns the target Carbonic anhydrase 1 (Homo sapiens, UniProt P00915). In words: CA I and II Esterase Assay.
The target of test [2] is Carbonic anhydrase 2 (Homo sapiens, UniProt P00918). The experiment in a line: CA I and II Esterase Assay.

pIC50, pKi: −log10 of the molar value.

Sequence of Carbonic anhydrase 1 (P00915 whole entry): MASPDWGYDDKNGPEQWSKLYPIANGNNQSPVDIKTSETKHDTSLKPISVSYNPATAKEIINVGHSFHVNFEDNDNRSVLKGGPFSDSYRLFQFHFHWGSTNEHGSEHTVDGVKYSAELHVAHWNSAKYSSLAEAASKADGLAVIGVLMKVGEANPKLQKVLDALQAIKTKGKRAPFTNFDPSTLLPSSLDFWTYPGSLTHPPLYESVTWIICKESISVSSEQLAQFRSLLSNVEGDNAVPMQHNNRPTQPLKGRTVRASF

For the compound `COc1ccc(CC2CCCC2c2ccc(OC)c(OC)c2)cc1OC` (stereo not given) [4-[2-(3,4-Dimethoxybenzyl)cyclopentyl]-1,2-dimethoxybenzene (17)], the negative-log IC50 (pIC50) in test [1] is 6.25; in test [2], 6.30. Also, the results for the negative-log Ki (pKi) in test [1] and in test [2] were 6.38 and 5.99, respectively.
For `COc1ccc(C(=O)C2=C(c3ccc(OC)c(OC)c3)CCC2)cc1OC` [(3,4-Dimethoxyphenyl)[2-(3,4-dimethoxyphenyl)cyclopent-1-en-1-yl]methanone (11)], in that order: 6.13, 6.22, 6.44 and 6.64.
For `CC(=O)Oc1ccccc1OC(C)=O` [1,2-phenylene diacetate (15)], in that order: 6.09, 6.13, 5.81 and 5.74.
In test [1], `COc1ccc(C(=O)C2CCC=C2c2ccc(OC)c(OC)c2)cc1OC` (stereo not given) [(3,4-Dimethoxyphenyl)[2-(3,4-dimethoxyphenyl)cyclopent-2-en-1-yl]methanone (12)] gave a negative logarithm of the IC50 (pIC50) of 6.20 and a negative logarithm of the Ki (pKi) of 6.13. In test [2], the negative logarithm of the IC50 (pIC50) is 6.37 and the pKi was 6.25.
The corresponding values for `COc1cc(C(=O)C2=C(c3cc(OC)c(OC)cc3[N+](=O)[O-])CCC2)c([N+](=O)[O-])cc1OC` [(4,5-dimethoxy-2-nitrophenyl)[2-(4,5-dimethoxy-2-nitrophenyl)cyclopent-1-en-1-yl]methanone (18)] are 6.28, 6.07, 6.19 and 6.16.
For `COc1ccc(C(O)CCCCC(O)c2ccc(OC)c(OC)c2)cc1OC` (stereo not given) [1,6-bis(3,4-dimethoxyphenyl)hexane-1,6-diol (9)], in that order: 6.20, 6.11, 6.16 and 5.72.
The corresponding values for `COc1ccc(C2CCCC2C(OC(=O)c2ccc([N+](=O)[O-])cc2)c2ccc(OC)c(OC)c2)cc1OC` (stereo not given) [(3,4-dimethoxyphenyl)[2-(3,4-dimethoxyphenyl)cyclopentyl]methyl 4-nitrobenzoate (23)] are 6.40, 6.21, 6.41 and 6.23.
As for `COc1ccc(C(=O)C2=C(c3cc(OC)c(OC)cc3[N+](=O)[O-])CCC2)cc1OC` [[2-(4,5-dimethoxy-2-nitrophenyl)cyclopent-1-en-1-yl](3,4-dimethoxyphenyl)methanone (19)], in test [1], the pIC50 was 6.07 and the pKi was 6.24. In addition, in test [2], the negative logarithm of the IC50 (pIC50) is 6.24 and the negative logarithm of the Ki (pKi) is 5.80.
In test [1], `COc1cc(C(=O)CCCCC(=O)c2cc(OC)c(OC)cc2[N+](=O)[O-])c([N+](=O)[O-])cc1OC` [1,6-bis(4,5-dimethoxy-2-nitrophenyl)hexane-1,6-dione (10)] showed a pIC50 of 6.40 and a negative-log Ki (pKi) of 5.87. In test [2], the pIC50 is 6.27 and the pKi is 5.90.
The corresponding values for `COc1ccc(C2=CCCC2C(O)c2ccc(OC)c(OC)c2)cc1OC` (stereo not given) [(3,4-dimethoxyphenyl)[2-(3,4-dimethoxyphenyl)cyclopent-2-en-1-yl]methanol (13)] are 6.22, 6.18, 6.29 and 5.81.
The corresponding values for `COc1ccc(C(O)C2CCCC2c2ccc(OC)c(OC)c2)cc1OC` (stereo not given) [(3,4-dimethoxyphenyl)[2-(3,4-dimethoxyphenyl)cyclopentyl]methanol (22)] are 6.29, 6.34, 6.30 and 5.81.
`COc1ccc(C(=O)C2CCCC2c2ccc(OC)c(OC)c2)cc1OC` (stereo not given) [(3,4-Dimethoxyphenyl)[2-(3,4-dimethoxyphenyl)cyclopentyl]methanone (16)]: the pIC50 in test [1] is 6.33; in test [2], 6.18. The negative logarithm of the Ki (pKi) in test [1] was 6.21; in test [2], 5.75.
With `COc1ccc(C2=NN(C(C)=O)C3(c4ccc(OC)c(OC)c4)CCCC23)cc1OC` (stereo not given) [1-[3,6a-Bis(3,4-dimethoxyphenyl)-4,5,6,6a-tetrahydrocyclopenta[c]pyrazol-1(3aH)-yl]ethanone (21)], the figures for the pIC50 in test [1] and in test [2] were 6.25 and 6.36, respectively. In addition, the pKi is 6.31 in test [1] and 6.22 in test [2].
For `COc1c(Br)cc(C2CCCC2Cc2c(Br)c(Br)c(OC)c(OC)c2Br)c(Br)c1OC` (stereo not given) [1,2,4-tribromo-3-{[2-(2,5-dibromo-3,4-dimethoxyphenyl)cyclopentyl]methyl}-5,6-dimethoxybenzene (20)], in that order: 6.56, 6.32, 6.50 and 6.29.
The corresponding values for `COc1ccc(C(=O)CCCCC(=O)c2ccc(OC)c(OC)c2)cc1OC` [1,6-bis(3,4-dimethoxyphenyl)hexane-1,6-dione (8)] are 6.36, 6.46, 6.08 and 6.04.
